Each structure is given as a SMILES string. Structures can show the parent of a compound that is named as a salt.

Assay [1] has as its system ENR+CD organoids (ISC to Paneth cell differentiation). Description: Primary screen: basal (non-stimulated) lysozyme secretion LYZ.NS, 2.5-D 384-well ENR+CD organoid differentiation. Particulars: primary screen; for Z.LYZ.NS: standard z score. It is filed as cell-based, mouse. The text has this:
(§1) High-throughput screening.

Assay [2] shares this test system. The assay is described as follows: Primary screen: CCh-stimulated lysozyme secretion LYZ.S, 2.5-D 384-well ENR+CD organoid differentiation. Particulars: primary screen. It is filed as cell-based, mouse.
Description: as §1

The next assay deals with ENR+CD organoids. The assay is described as follows: Primary screen: ATP (CellTiter-Glo 3D, CTG) cell number/viability, 2.5-D 384-well ENR+CD organoids.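 On all read-outs here: compounds given at plating and again on day 3 over a 6-day differentiation from ENR+CV stem-cell-enriched precursors, ATP measured on day 6, plate median as control.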 Particulars: primary screen; for Z.CTG: standard z score. On the technique in general: Cellular ATP, detected with luciferase, serves as a proxy for viable cell number.
Setting [3] is: dose 0.08 uM, FC relative to plate median.
Where [4] appears, read: dose 0.40 uM, FC relative to plate median.
Setting [5] is: dose 2.00 uM, FC relative to plate median.
Setting [6] is: dose 10.00 uM, FC relative to plate median.
Where [7] appears, read: dose 0.08 uM, FC vs plate median.
The mark [8] stands for this setting: dose 0.40 uM, FC vs plate median.
Where [9] appears, read: dose 2.00 uM, FC vs plate median.
[10] abbreviates: dose 10.00 uM, FC vs plate median.

For the compound `Cc1noc(-c2ccc(CSCCC(=O)O)cc2)c1NC(=O)OC(C)c1ccccc1Cl` (centres unmarked) [Ki16425], the “Dose.FC.LYZ.NS (log2 fold change)” value in assay [1] (dose 0.08 uM) is 0.001; in assay [1] (dose 0.40 uM), 0.117; in assay [1] (dose 2.00 uM), −0.008; in assay [1] (dose 10.00 uM), −0.038. The “Z.LYZ.NS (standard z score)” value in assay [1] (dose 0.08 uM) is 0.005; in assay [1] (dose 0.40 uM), 1.017; in assay [1] (dose 2.00 uM), −0.069; in assay [1] (dose 10.00 uM), −0.327. Moreover, the “Dose.FC.LYZ.S (log2 fold change)” value is on record as 0.022 in assay [2] (dose 0.08 uM), 0.114 in assay [2] (dose 0.40 uM), −0.021 in assay [2] (dose 2.00 uM) and −0.071 in assay [2] (dose 10.00 uM). Moreover, the “Dose.FC.CTG (log2 fold change)” value in the assay on ENR+CD organoids (dose 0.08 uM) was −0.051; in the assay on ENR+CD organoids (dose 0.40 uM), −0.002; with ENR+CD organoids (dose 2.00 uM), −0.078; in the assay on ENR+CD organoids (dose 10.00 uM), −0.165. In addition, the “Z.CTG (standard z score)” value is −0.121 in the assay on ENR+CD organoids (dose 0.08 uM), −0.005 in the assay on ENR+CD organoids (dose 0.40 uM), −0.185 in the assay on ENR+CD organoids (dose 2.00 uM) and −0.394 in the assay on ENR+CD organoids (dose 10.00 uM).
For `O=S(=O)(c1ccccc1)c1cnc2c(N3CCNCC3)cccc2c1` [SB742457], the Dose.FC.LYZ.NS in assay [1] (setting [3]) is recorded as 0.012 log2 fold change; in assay [1] (setting [4]) it was −0.062 log2 fold change; in assay [1] (setting [5]) it was 0.069 log2 fold change; in assay [1] (setting [6]), 0.013 log2 fold change. Also, the Z.LYZ.NS in assay [1] (dose 0.08 uM) is listed as 0.108; in assay [1] (dose 0.40 uM), −0.537; in assay [1] (dose 2.00 uM), 0.598; in assay [1] (dose 10.00 uM), 0.115. For the same compound, the Dose.FC.LYZ.S in assay [2] (setting [3]) is −0.055 log2 fold change; in assay [2] (setting [4]) it was −0.029 log2 fold change; in assay [2] (setting [5]) it was −0.003 log2 fold change; in assay [2] (setting [6]), −0.006 log2 fold change. Moreover, the Dose.FC.CTG in the assay on ENR+CD organoids (setting [3]) is recorded as −0.290 log2 fold change; with ENR+CD organoids (setting [4]), −0.126 log2 fold change; in the assay on ENR+CD organoids (setting [5]), −0.177 log2 fold change; in the assay on ENR+CD organoids (setting [6]) it was −0.294 log2 fold change. In addition, the Z.CTG with ENR+CD organoids (dose 0.08 uM) is listed as −0.693; with ENR+CD organoids (dose 0.40 uM), −0.300; in the assay with ENR+CD organoids (dose 2.00 uM) it was −0.423; in the assay on ENR+CD organoids (dose 10.00 uM) it was −0.702.
Turning to `O=C(/C=C/c1cccc(S(=O)(=O)Nc2ccccc2)c1)NO` [Belinostat (PXD101)], the Dose.FC.LYZ.NS was 0.008 log2 fold change in assay [1] (dose 0.08 uM), 0.129 log2 fold change in assay [1] (dose 0.40 uM), −0.173 log2 fold change in assay [1] (dose 2.00 uM) and −0.196 log2 fold change in assay [1] (dose 10.00 uM). The “Z.LYZ.NS (standard z score)” value in assay [1] (dose 0.08 uM) is recorded as 0.067; in assay [1] (dose 0.40 uM) it was 1.125; in assay [1] (dose 2.00 uM), −1.510; in assay [1] (dose 10.00 uM), −1.709. The Dose.FC.LYZ.S in assay [2] (dose 0.08 uM) is reported as −0.059 log2 fold change; in assay [2] (dose 0.40 uM), 0.042 log2 fold change; in assay [2] (dose 2.00 uM), −0.264 log2 fold change; in assay [2] (dose 10.00 uM) it was −0.327 log2 fold change. Further, the Dose.FC.CTG is −0.227 log2 fold change in the assay on ENR+CD organoids (dose 0.08 uM), −0.055 log2 fold change in the assay on ENR+CD organoids (dose 0.40 uM), −0.782 log2 fold change with ENR+CD organoids (dose 2.00 uM) and −1.122 log2 fold change in the assay with ENR+CD organoids (dose 10.00 uM). The “Z.CTG (standard z score)” value in the assay with ENR+CD organoids (dose 0.08 uM) was −0.543; in the assay on ENR+CD organoids (dose 0.40 uM), −0.133; in the assay on ENR+CD organoids (dose 2.00 uM), −1.868; in the assay with ENR+CD organoids (dose 10.00 uM), −2.679.
With `COc1ccccc1S(=O)(=O)Nc1ccc2c(c1)CN(C)C(=O)N2` [PFI-1 (PF-6405761)], the Z.LYZ.NS is reported as 0.538 in assay [1] (dose 0.08 uM), 0.691 in assay [1] (dose 0.40 uM), −0.852 in assay [1] (dose 2.00 uM) and −0.573 in assay [1] (dose 10.00 uM). Moreover, the Dose.FC.LYZ.NS in assay [1] (setting [7]) was 0.062 log2 fold change; in assay [1] (setting [8]), 0.079 log2 fold change; in assay [1] (setting [9]) it was −0.098 log2 fold change; in assay [1] (setting [10]) it was −0.066 log2 fold change. Also, the Dose.FC.LYZ.S is given as 0.061 log2 fold change in assay [2] (setting [7]), 0.104 log2 fold change in assay [2] (setting [8]), −0.117 log2 fold change in assay [2] (setting [9]) and −0.194 log2 fold change in assay [2] (setting [10]). The Z.CTG with ENR+CD organoids (dose 0.08 uM) was 0.340; with ENR+CD organoids (dose 0.40 uM), 0.931; with ENR+CD organoids (dose 2.00 uM), 0.770; in the assay on ENR+CD organoids (dose 10.00 uM), −0.929. The Dose.FC.CTG is 0.142 log2 fold change in the assay with ENR+CD organoids (setting [7]), 0.390 log2 fold change with ENR+CD organoids (setting [8]), 0.322 log2 fold change in the assay with ENR+CD organoids (setting [9]) and −0.389 log2 fold change in the assay with ENR+CD organoids (setting [10]).
For `CN[C@H]1CC[C@@H](c2ccc(Cl)c(Cl)c2)c2ccccc21` [Sertraline HCl], the Dose.FC.LYZ.NS is −0.026 log2 fold change in assay [1] (setting [3]), −0.082 log2 fold change in assay [1] (setting [4]), 0.052 log2 fold change in assay [1] (setting [5]) and −0.005 log2 fold change in assay [1] (setting [6]). Also, the Z.LYZ.NS in assay [1] (dose 0.08 uM) is recorded as −0.227; in assay [1] (dose 0.40 uM) it was −0.714; in assay [1] (dose 2.00 uM), 0.450; in assay [1] (dose 10.00 uM) it was −0.044. Further, the Dose.FC.LYZ.S in assay [2] (setting [3]) is recorded as −0.048 log2 fold change; in assay [2] (setting [4]), −0.076 log2 fold change; in assay [2] (setting [5]), 0.023 log2 fold change; in assay [2] (setting [6]) it was −0.021 log2 fold change. For the same compound, the Dose.FC.CTG in the assay on ENR+CD organoids (setting [3]) was −0.079 log2 fold change; in the assay with ENR+CD organoids (setting [4]), 0.087 log2 fold change; in the assay on ENR+CD organoids (setting [5]) it was 0.066 log2 fold change; with ENR+CD organoids (setting [6]) it was 0.043 log2 fold change.
On to `N#CSc1cc(SC#N)c(N)nc1N` [PR-619], for which the Dose.FC.LYZ.NS in assay [1] (setting [3]) was 0.100 log2 fold change; in assay [1] (setting [4]), 0.051 log2 fold change; in assay [1] (setting [5]) it was 0.057 log2 fold change; in assay [1] (setting [6]) it was −0.194 log2 fold change. The Z.LYZ.NS is 0.872 in assay [1] (dose 0.08 uM), 0.448 in assay [1] (dose 0.40 uM), 0.495 in assay [1] (dose 2.00 uM) and −1.687 in assay [1] (dose 10.00 uM). Further, the Dose.FC.LYZ.S in assay [2] (setting [3]) is recorded as 0.122 log2 fold change; in assay [2] (setting [4]), 0.047 log2 fold change; in assay [2] (setting [5]) it was 0.081 log2 fold change; in assay [2] (setting [6]) it was −0.193 log2 fold change. For the same compound, the Dose.FC.CTG in the assay with ENR+CD organoids (setting [3]) was 0.054 log2 fold change; in the assay with ENR+CD organoids (setting [4]), 0.111 log2 fold change; in the assay on ENR+CD organoids (setting [5]), 0.022 log2 fold change; in the assay on ENR+CD organoids (setting [6]) it was −0.320 log2 fold change. The Z.CTG in the assay on ENR+CD organoids (dose 0.08 uM) was 0.130; with ENR+CD organoids (dose 0.40 uM) it was 0.266; in the assay on ENR+CD organoids (dose 2.00 uM), 0.053; in the assay with ENR+CD organoids (dose 10.00 uM) it was −0.764.
For `CCN1CCC[C@H]1CNC(=O)c1cc(S(N)(=O)=O)ccc1OC` [Levosulpiride], the “Dose.FC.LYZ.NS (log2 fold change)” value is 0.013 in assay [1] (dose 0.08 uM), 0.024 in assay [1] (dose 0.40 uM), 0.051 in assay [1] (dose 2.00 uM) and −0.028 in assay [1] (dose 10.00 uM). The “Z.LYZ.NS (standard z score)” value in assay [1] (dose 0.08 uM) is given as 0.114; in assay [1] (dose 0.40 uM), 0.205; in assay [1] (dose 2.00 uM) it was 0.441; in assay [1] (dose 10.00 uM), −0.240. Moreover, the “Dose.FC.LYZ.S (log2 fold change)” value in assay [2] (dose 0.08 uM) is on record as −0.017; in assay [2] (dose 0.40 uM), 0.128; in assay [2] (dose 2.00 uM), 0.124; in assay [2] (dose 10.00 uM) it was −0.026. Moreover, the “Dose.FC.CTG (log2 fold change)” value was −0.043 with ENR+CD organoids (dose 0.08 uM), −0.006 in the assay on ENR+CD organoids (dose 0.40 uM), 0.031 with ENR+CD organoids (dose 2.00 uM) and 0.090 with ENR+CD organoids (dose 10.00 uM).
Turning to `NC(=O)Nc1cc(-c2cccc(F)c2)sc1C(=O)N[C@H]1CCCNC1` [AZD7762], the Dose.FC.LYZ.NS in assay [1] (dose 0.08 uM) is 0.010 log2 fold change; in assay [1] (dose 0.40 uM), −0.159 log2 fold change; in assay [1] (dose 2.00 uM) it was −0.211 log2 fold change; in assay [1] (dose 10.00 uM), −0.220 log2 fold change. For the same compound, the “Z.LYZ.NS (standard z score)” value in assay [1] (dose 0.08 uM) is on record as 0.084; in assay [1] (dose 0.40 uM) it was −1.385; in assay [1] (dose 2.00 uM), −1.835; in assay [1] (dose 10.00 uM) it was −1.917. Besides, the Dose.FC.LYZ.S in assay [2] (dose 0.08 uM) is listed as 0.019 log2 fold change; in assay [2] (dose 0.40 uM), −0.251 log2 fold change; in assay [2] (dose 2.00 uM), −0.342 log2 fold change; in assay [2] (dose 10.00 uM), −0.369 log2 fold change. Besides, the Dose.FC.CTG in the assay on ENR+CD organoids (dose 0.08 uM) is on record as 0.054 log2 fold change; with ENR+CD organoids (dose 0.40 uM), −0.384 log2 fold change; in the assay with ENR+CD organoids (dose 2.00 uM) it was −0.804 log2 fold change; with ENR+CD organoids (dose 10.00 uM), −1.361 log2 fold change. The “Z.CTG (standard z score)” value in the assay with ENR+CD organoids (dose 0.08 uM) is 0.129; in the assay with ENR+CD organoids (dose 0.40 uM), −0.917; with ENR+CD organoids (dose 2.00 uM), −1.920; with ENR+CD organoids (dose 10.00 uM), −3.251.

The values above are taken from patent US20220323406A1, “METHODS AND COMPOSITIONS FOR DIFFERENTIATING STEM CELLS” (Massachusetts Institute of Technology, priority 2019, published 2022).
